Data reported in patent US20130274216A1 (priority 2012, published 2013).

Columns and labels:
[1] = test system: Fusarium conidia infected murine cornea; assay: In vivo murine fungal keratitis model, neutrophil infiltration of the infected cornea; set-up: species or system C57BL/6 mice; conditions: for neutrophil infiltration (neutrophils per 5 μm corneal section): 24 hours after infection, infected PBS or vehicle groups >200 neutrophils/section
[2] = test system: Aspergillus flavus; assay type: in vivo, murine

SMILES | neutrophil infiltration (neutrophils per 5 μm corneal section) ([1]; 0.1% w/v test group) | neutrophil infiltration (neutrophils per 5 μm corneal section) ([1]; 1% w/v test group) | neutrophil infiltration, effect in words ([1]; test groups vs infected PBS/vehicle groups, 24 hours, FIG. 2) | reduction in CFUs/eye ([2]; 72 hours after infection with Aspergillus, dosed qid for 48 hours, control approximately 15000 CFUs/eye, FIG. 3B) | Aspergillus infection evaluated by RFP expression ([2]; fluorescence micrographs of murine corneas 72 hours after infection, FIG. 3A)
COc1ccc(Nc2nc(-c3cccs3)nc3cn[nH]c23)cc1OC [Compound 1] | < 100 neutrophils/section | < 100 neutrophils/section | dose-dependent reduction | – | –
C[C@@H]1C/C=C/C=C/C=C/C=C/[C@H](O[C@@H]2O[C@H](C)[C@@H](O)[C@H](N)[C@@H]2O)C[C@@H]2O[C@](O)(C[C@@H](O)C[C@H]3O[C@@H]3/C=C/C(=O)O1)C[C@H](O)[C@H]2C(=O)O [natamycin] | – | – | – | ~50% | suppressed
